The record followed here is ChEMBL document CHEMBL4732026, “Benzimidazole-1,2,3-triazole hybrid molecules: synthesis and study of their interaction with G-quadruplex DNA” (RSC Med Chem, 2021).

Series [1] relates to CHO-K1. The series can be described thus: Induction of apoptosis in CHO-K1 cells assessed as late apoptic cells at 60 uM after 48 hrs by Annexin V based flow cytometric analysis (reference value: 1.01%). Type of series: cell-based, Cricetulus griseus. To be noted: chinese hamster, cho-k1, 48 h.
Series [2] can be described thus: Induction of apoptosis in CHO-K1 cells assessed as viable cells at 65 uM after 48 hrs by Annexin V based flow cytometric analysis (reference value: 93.71%). Type of series: cell-based, Cricetulus griseus. To be noted: chinese hamster, read-out: Activity. For orientation: In flow cytometry, cells or beads pass a laser one at a time.
Series [3] concerns PC-3. The series can be described thus: Induction of apoptosis in human PC-3 cells assessed as early apoptic cells at 50 uM after 48 hrs by Annexin V based flow cytometric analysis (reference value: 0.40%). Type of series: functional.
The test system of series [4] is PC-3. Kind of series: Induction of cell cycle arrest in human PC3 cells assessed as accumulation at G2/M phase at 55 uM after 48 hrs by propidium iodide staining based flow cytometry (reference value: 1.4%). Type of series: functional.
The test system of another series is B16-F10. Kind of series: Cytotoxicity against mouse B16-F10 cells assessed as reduction in cell viability measured after 72 hrs by MTT assay. Type of series: functional, cell-based. To be noted: B16-F10, 72 h. On the technique in general: Tetrazolium dyes change colour on reduction, which living cells bring about.
In a further series the target is dsDNA. The series can be described thus: Binding affinity to double strand DNA (unknown origin) assessed as dissociation constant incubated for 5 mins by UV- vis spectrophotometric analysis. Type of series: nucleic-acid assay.
Series [5] has as its system Quadruplex DNA. Kind of series: Stabilization of Tel Q G-quadruplex DNA (unknown origin) assessed as change in melting temperature at 8.5 uM incubated for 5 mins by UV-visible thermal denaturation study. Type of series: nucleic-acid assay.
The test system of series [6] is CHO-K1. The series can be described thus: Induction of apoptosis in CHO-K1 cells assessed as necrotic cells at 60 uM after 48 hrs by Annexin V based flow cytometric analysis (reference value: 0.70%). Type of series: cell-based, Cricetulus griseus. To be noted: chinese hamster, cho-k1, 48 h.
The test system of series [7] is PC-3. The series can be described thus: Induction of apoptosis in human PC-3 cells assessed as necrotic cells at 55 uM after 48 hrs by Annexin V based flow cytometric analysis (reference value: 0.79%). Type of series: functional.
Series [8] relates to PC-3. The series can be described thus: Induction of cell cycle arrest in human PC3 cells assessed as accumulation at G2/M phase at 50 uM after 48 hrs by propidium iodide staining based flow cytometry (reference value: 1.4%). Type of series: functional.
Series [9] deals with PC-3. The series can be described thus: Induction of apoptosis in human PC-3 cells assessed as apoptotic cells at 50 uM incubated for 48 hrs by AnnexinV based flow cytometric analysis (reference value: 10.43%). Type of series: functional.
For series [10], the system named is CHO-K1. Kind of series: Induction of apoptosis in CHO-K1 cells assessed as late apoptic cells at 65 uM after 48 hrs by Annexin V based flow cytometric analysis (reference value: 1.01%). Type of series: cell-based, Cricetulus griseus. To be noted: chinese hamster, cho-k1, 48 h.
The subject of series [11] is PC-3. Kind of series: Induction of apoptosis in human PC-3 cells assessed as early apoptic cells at 55 uM after 48 hrs by Annexin V based flow cytometric analysis (reference value: 0.40%). Type of series: functional.
Series [12] addresses Quadruplex DNA. The series can be described thus: Binding affinity to c-Myc G-quadruplex DNA (unknown origin) assessed as dissociation constant incubated for 5 mins by UV- vis spectrophotometric analysis. Type of series: nucleic-acid assay.

For the molecule `O=C(Cn1cc(CSc2nc3cc(OC(F)F)ccc3[nH]2)nn1)NC1CCCCC1`, the Activity with CHO-K1 [1] came to 1.62%; in the series on PC-3 [3] it was 0.76%; in the series with PC-3 [4], 11.2%; in the series with CHO-K1 [6], 1.97%; in the series on PC-3 [7], 2.64%; in the series with PC-3 [8] it was 9.6%. Besides, the Activity is on record as 12.72% in the series with PC-3 [9], 2.16% in the series on CHO-K1 [10] and 2.2% in the series on PC-3 [11]. In series [2], the viability at 48 h, 65 µM came out at 84.4%. Also, in the series on B16-F10, the IC50 was found to be 84.7 µM. Also, the Kd at dsDNA was 175 µM; on Quadruplex DNA [12], 113 µM. For the same molecule, the ΔTm with Quadruplex DNA [5] was found to be 14 °C.

Usually IC50 stands for the concentration at which inhibition is half-maximal. As usually defined, the Kd is the concentration at which binding is half-saturated. The term ΔTm denotes the change in melting temperature against a reference sample.
